# Results taken from PubChem BioAssay AID2060625 (Molecular Pharmacology Branch, DTP, NCI, 2025).
# Test system: 186277-243-T-J2-PDC spheroids with HUVEC/MSC, viability
# Experiment: Anticancer human tumor 186277-243-T-J2-PDC patient-derived colon adenocarcinoma cell line growth inhibition [CLK]
# Conditions: for IC50: curve of first compound; for viability, T/C: stronger effect = lower value
# In short: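 Patient-derived tumor cells grown as complex spheroids with HUVEC endothelial cells and mesenchymal stem cells, treated with drug combinations. Concentrations descend in half-log steps from near clinical Cmax, or from 10 microM if Cmax unknown.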
# [1] = second compound 0.0316 µM, first compound 0.0316 µM
# [2] = second compound 0.0316 µM, first compound 0.1 µM
# [3] = second compound 0.0316 µM, first compound 0.316 µM
# [4] = second compound 0.0316 µM, first compound 1 µM
# [5] = second compound 0.0316 µM, first compound 3.16 µM
# [6] = second compound 0.0316 µM, first compound 10 µM
# [7] = second compound 0.1 µM, first compound 0.0316 µM
# [8] = second compound 0.1 µM, first compound 0.1 µM
# [9] = second compound 0.1 µM, first compound 0.316 µM
# [10] = second compound 0.1 µM, first compound 1 µM
# [11] = second compound 0.1 µM, first compound 3.16 µM
# [12] = second compound 0.1 µM, first compound 10 µM
# [13] = second compound 0.316 µM, first compound 0.0316 µM
# [14] = second compound 0.316 µM, first compound 0.1 µM
# [15] = second compound 0.316 µM, first compound 0.316 µM
# [16] = second compound 0.316 µM, first compound 1 µM
# [17] = second compound 0.316 µM, first compound 3.16 µM
# [18] = second compound 0.316 µM, first compound 10 µM
# [19] = second compound 1 µM, first compound 0.0316 µM
# [20] = second compound 1 µM, first compound 0.1 µM
# [21] = second compound 1 µM, first compound 0.316 µM
# [22] = second compound 1 µM, first compound 1 µM
# [23] = second compound 1 µM, first compound 3.16 µM
# [24] = second compound 1 µM, first compound 10 µM
# [25] = second compound 3.16 µM, first compound 0.0316 µM
# [26] = second compound 3.16 µM, first compound 0.1 µM
# [27] = second compound 3.16 µM, first compound 0.316 µM
# [28] = second compound 3.16 µM, first compound 1 µM
# [29] = second compound 3.16 µM, first compound 3.16 µM
# [30] = second compound 3.16 µM, first compound 10 µM
# [31] = second compound 10 µM, first compound 0.0316 µM
# [32] = second compound 10 µM, first compound 0.1 µM
# [33] = second compound 10 µM, first compound 0.316 µM
# [34] = second compound 10 µM, first compound 1 µM
# [35] = second compound 10 µM, first compound 3.16 µM
# [36] = second compound 10 µM, first compound 10 µM
# 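Note: compound exposure lasted seven days before readout.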
# 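Throughout, for viability, T/C: 100% = DMSO vehicle control wells.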
compound,measurement,setting,value
CC1(C)CCC(CN2CCN(c3ccc(C(=O)NS(=O)(=O)c4ccc(NCC5CCOCC5)c([N+](=O)[O-])c4)c(Oc4cnc5[nH]ccc5c4)c3)CC2)=C(c2ccc(Cl)cc2)C1 + CN1CCN(c2cc(C(=O)Nc3cc4cc(-c5cnn(C)c5)ccc4cn3)ccn2)CC1,IC50,second compound 0.0316 µM,5780 nM
same,IC50,second compound 0.1 µM,5350 nM
same,IC50,second compound 0.316 µM,< 31.6 nM
same,IC50,second compound 1 µM,< 31.6 nM
same,IC50,second compound 3.16 µM,< 31.6 nM
same,IC50,second compound 10 µM,< 31.6 nM
same,"viability, T/C",[1],92.5%
same,"viability, T/C",[2],93.2%
same,"viability, T/C",[3],94.6%
same,"viability, T/C",[4],92.1%
same,"viability, T/C",[5],104%
same,"viability, T/C",[6],8.6%
same,"viability, T/C",[7],82.4%
same,"viability, T/C",[8],76.3%
same,"viability, T/C",[9],87.6%
same,"viability, T/C",[10],94.5%
same,"viability, T/C",[11],101%
same,"viability, T/C",[12],4.42%
same,"viability, T/C",[13],30.1%
same,"viability, T/C",[14],32.8%
same,"viability, T/C",[15],23.6%
same,"viability, T/C",[16],30.9%
same,"viability, T/C",[17],25.3%
same,"viability, T/C",[18],2.48%
same,"viability, T/C",[19],0.62%
same,"viability, T/C",[20],0.92%
same,"viability, T/C",[21],0.31%
same,"viability, T/C",[22],0.75%
same,"viability, T/C",[23],1.8%
same,"viability, T/C",[24],0.48%
same,"viability, T/C",[25],1.95%
same,"viability, T/C",[26],0.91%
same,"viability, T/C",[27],1.71%
same,"viability, T/C",[28],1.07%
same,"viability, T/C",[29],1.36%
same,"viability, T/C",[30],0.41%
same,"viability, T/C",[31],0.95%
same,"viability, T/C",[32],1.04%
same,"viability, T/C",[33],1.34%
same,"viability, T/C",[34],0.91%
same,"viability, T/C",[35],0.55%
same,"viability, T/C",[36],0.2%
CC1COCCN1c1cc(C2(S(C)(=N)=O)CC2)nc(-c2ccnc3[nH]ccc23)n1 (centres undefined) + CN1CCN(c2cc(C(=O)Nc3cc4cc(-c5cnn(C)c5)ccc4cn3)ccn2)CC1,IC50,second compound 0.0316 µM,2250 nM
same,IC50,second compound 0.1 µM,1320 nM
same,IC50,second compound 0.316 µM,< 31.6 nM
same,IC50,second compound 1 µM,< 31.6 nM
same,IC50,second compound 3.16 µM,< 31.6 nM
same,IC50,second compound 10 µM,< 31.6 nM
same,"viability, T/C",[1],93.4%
same,"viability, T/C",[2],86.8%
same,"viability, T/C",[3],105%
same,"viability, T/C",[4],95%
same,"viability, T/C",[5],31.2%
same,"viability, T/C",[6],11.2%
same,"viability, T/C",[7],76.9%
same,"viability, T/C",[8],80.5%
same,"viability, T/C",[9],74.2%
same,"viability, T/C",[10],59.1%
same,"viability, T/C",[11],22.6%
same,"viability, T/C",[12],10.5%
same,"viability, T/C",[13],23.9%
same,"viability, T/C",[14],25.9%
same,"viability, T/C",[15],24.3%
same,"viability, T/C",[16],24.7%
same,"viability, T/C",[17],19.7%
same,"viability, T/C",[18],12.6%
same,"viability, T/C",[19],0.89%
same,"viability, T/C",[20],0.78%
same,"viability, T/C",[21],0.7%
same,"viability, T/C",[22],1.08%
same,"viability, T/C",[23],1.18%
same,"viability, T/C",[24],1.33%
same,"viability, T/C",[25],1.91%
same,"viability, T/C",[26],1.72%
same,"viability, T/C",[27],1.28%
same,"viability, T/C",[28],1.01%
same,"viability, T/C",[29],1.48%
same,"viability, T/C",[30],2.05%
same,"viability, T/C",[31],0.93%
same,"viability, T/C",[32],0.87%
same,"viability, T/C",[33],1.19%
same,"viability, T/C",[34],1.26%
same,"viability, T/C",[35],1.01%
same,"viability, T/C",[36],1.14%
